Experimental data published in patent US8232315B2, “Methods for treating drug addiction and improving addiction-related behavior” (SK Biopharmaceuticals Co., Ltd., priority 2009, dated 2012).
Entries after “also recorded” stand apart in the source; their conditions may differ.

Columns and labels:
[1] = test system: rhesus monkeys trained to self-administer cocaine; assay: Cocaine self-administration, dose-ranging studies with peak unit dose of i.v. cocaine and food components; type: in vivo, rhesus monkeys (Macaca mulatta)
Protocol: (§1) The test compound (O-carbamoyl-(D)-phenylalaminol) was tested for the effects on cocaine self-administration in rhesus monkeys. Rhesus monkeys were trained to self-administer cocaine (0.032 mg/kg/inj, i.v.) and 1 g banana-flavored food pellets during 2-hr experimental sessions in the Rapid Assessment Procedure. Each session consisted of four 20-min components of drug availability (100-min), each separated by a 5-min timeout period. The four components of drug availability were preceded and followed by […] components of food availability. During training, unit doses of cocaine were varied across components of the session (0.001-0.03 or 0.01-0.32 mg/kg/inj) to provide full dose effect curves for cocaine self-administration. The position and slope of the dose-effect curve varied among monkeys and, generally, was represented by an inverted-U shape function characteristic for cocaine self-administration under fixed-ratio schedules. In some sessions, the unit dose of cocaine at the peak of the dose-effect curve for i.v. self-administration (0.0032 or 0.032 mg/kg/inj) was kept constant across components of the session. After baseline cocaine dose-effect curves and the effects of peak dose availability throughout the session were stable, experiments with test compound were begun.
Two types of cocaine self-administration experiments were conducted to evaluate pretreatment with test compound: (1) test compound dose-ranging studies and (2) effects of a single dose of test compound on cocaine dose-effect curves. In initial dose-ranging experiments, test compound was studied in individual monkeys by administering i.m. doses of 10-32 mg/kg 30-min before the session.
(§2) Subjects. Five male rhesus monkeys (Macaca mulatta), 89B013, 96D155, 97D105, RQ22 15, and 93N082, were trained to respond for the delivery of 1-g banana pellets under a program of gradually increasing values of a fixed-ratio (FR) schedule until performance was maintained under the terminal FR 30 response schedule. Then, a double-lumen intravenous catheter was surgically implanted under aseptic-conditions in each monkey. Subsequently, monkeys were trained to respond for cocaine (see below). All monkeys were maintained under identical housing conditions as specified under contract DA-7-8073. Individual monkeys had visual, auditory, and olfactory contact with other monkeys, and several types of enrichment devices were provided in the home chamber.
(§3) Apparatus. All experimental equipment was identical to that used in our previously described drug self-administration studies. Briefly, each monkey was housed individually in a well-ventilated stainless steel chamber (64×64×79 cm). The home cages of all monkeys were modified to include an operant panel (28×28 cm) mounted on the front wall and fitted with response keys that could be trans-illuminated by red or green stimulus lights (LEDs). The operant panel also supported an externally-mounted pellet dispenser (Gerbrands, Model G5210) that delivered 1 gm fruit-flavored food pellets (P. J. Noyes Co., Lancaster, N.H.) to a food receptacle mounted on the cage beneath the operant response panel. Two syringe pumps (Model B5P-IE, Braintree Scientific, Braintree, Mass.; or Model 980210, Harvard Apparatus, South Natick, Mass.) were mounted above each cage for delivery of saline or drug solutions through the double-lumen intravenous catheters. Operation of the operant panels and data collection were accomplished with an LBM-compatible computer supplied by Med Associates, Inc., and located in an adjacent room. The experimental control hardware was supplied by Med Associates, Inc., and was controlled by customized-software written in MedState Notation.
(§4) Test sessions. A diagram of the Rapid Assessment Procedure is shown in the drawing. Test sessions occurred twice daily beginning at 11 a.m. and 3 p.m. […]

[2] = test system: rhesus monkeys trained to self-administer cocaine; assay: Cocaine self-administration, Rapid Assessment (Rapid Dose Effect) Procedure, cocaine dose-effect curve; type: in vivo, rhesus monkeys (Macaca mulatta)
Protocol: as §1
Next, the Rapid Assessment Procedure was used to evaluate the effects of a single i.m. dose of test compound on self-administration of a range of unit doses of cocaine within a single experimental session. […] During rapid assessment studies, food-maintained behavior was disrupted in two monkeys and unaffected in the remaining two monkeys, resulting in a >50% decrease in averaged response rates prior to or following sessions of cocaine self-administration.
as §2, §3, §4

[3] = 32 mg/kg i.m. pretreatment, averaged for the group
[4] = 32 mg/kg i.m., monkeys 96D155, 93N082 and 97D105

**Q.** What does the source list for `NC(=O)OC[C@H](N)Cc1ccccc1` [test compound, O-carbamoyl-(D)-phenylalaminol]?
**A.** Effect on i.v. cocaine self-administration behavior ([1]; 10 mg/kg i.m., any of the four monkeys): did not alter; Effect on self-administration of the peak unit dose of i.v. cocaine ([1]; 10 mg/kg i.m., averaged for the group): did not have consistent effects; also recorded: without appreciable effect; Food-maintained performance, Food 1 and Food 2 ([1]; 10 mg/kg i.m., monkeys 89B013 and RQ2215): unchanged; Food-maintained responding, Food 2 ([1]; 10 mg/kg i.m., monkeys 96D155 and 93N082): decreased food-maintained responding; Food-maintained behavior, Food 1 ([1]; 18 mg/kg i.m., any monkey): not appreciably affected; Decrease in self-administration of the peak unit dose of i.v. cocaine ([1]; 18 mg/kg i.m., monkey 89B013): approximately 50%; Food-maintained behavior, Food 2 ([1]; 18 mg/kg i.m., monkeys 89B013 and 93N082): greatly decreased; Food-maintained behavior, Food 2 ([1]; 18 mg/kg i.m., monkeys 96D155 and RQ2215): did not change behavior; Effect on i.v. self-administration behavior ([1]; 18 mg/kg i.m., remaining three subjects): did not appreciably alter; Decrease in self-administration of the peak unit dose of i.v. cocaine ([1]; 32 mg/kg i.m. 30 min before session, averaged for the group of monkeys): approximately 50%; Effect on food-maintained behavior ([1]; 32 mg/kg i.m. (18 or 32 mg/kg), prior to or following cocaine components): without consistently disrupting food-maintained behavior; also recorded: did not consistently alter; Effect on self-administration of the peak unit dose of i.v. cocaine ([1]; 32 mg/kg i.m., averaged for the group): markedly decreased; Reduction of self-administration of the peak unit dose of i.v. cocaine ([1]; 32 mg/kg i.m., each of the three monkeys studied): ≥ 50%; Food-maintained performance, Food 1 and Food 2 ([1]; 32 mg/kg i.m., monkey 93N082): markedly decreased; Food-maintained responding, either food component ([1]; 32 mg/kg i.m., monkeys 96D155 and RQ2215): did not alter responding; Effect on food-maintained behavior ([1]; pretreatment doses 10-32 mg/kg i.m., averaged for the group, dose-ranging studies): only inconsistent effects; Displacement of the descending portion of the cocaine dose-effect curve ([2]; 32 mg/kg i.m.): leftward and upward displacement; Effect on responding during availability of saline or low unit doses of i.v. cocaine (0.001-0.01 mg/kg) [2, 3]: either increased or did not change response rates; also recorded: increased responding; Effect on self-administration of higher unit doses of i.v. cocaine (0.032-0.32 mg/kg) [2, 3]: decreased cocaine self-administration behavior; Decrease in food-maintained responding (averaged response rates), Food 1 and Food 2 ([2]; 32 mg/kg i.m., averaged for the group, rapid assessment): > 50%; Decrease in food-maintained responding, Food 1 ([2]; 32 mg/kg i.m., monkey RQ2215): 40%; Responding during availability of saline or unit doses of i.v. cocaine 0.001-0.032 mg/kg/injection ([2]; 32 mg/kg i.m., monkey RQ2215): inconsistently increased; Responding during availability of unit doses of 0.1 and 0.32 mg/kg cocaine ([2]; 32 mg/kg i.m., monkey RQ2215): unchanged; Food-maintained responding, Food 1 ([2]; 32 mg/kg i.m., monkeys 93N082 and 97D105): nearly eliminated; Effect on i.v. self-administration during availability of higher unit doses of cocaine [2, 4]: reduced i.v. self-administration behavior; Effect on responding during availability of saline or low unit doses of cocaine (0.001-0.01 mg/kg) [2, 4]: increased responding; Food-maintained responding, Food 2 [2, 4]: nearly eliminated
